According to PMC12977544, “Phenotypic high-throughput screening identifies modulators of gut microbial choline metabolism” (mBio, 2026):

Tests used:
E. coli MS 200-1 [1] = assay: TMA inhibition in bacterial whole cells (LC–MS/MS of d9-TMA from d9-choline); type: cell-based, Escherichia coli MS 200-1; conditions: Escherichia coli, MS2001, 1.25 h; 1 mM d9-choline in PBS, 75 min, 37°C, anaerobic
E. coli MS 200-1 [2] = assay: Growth-based phenotypic high-throughput screen (OD600 Z-scores, choline vs glycerol NCE medium); type: cell-based, Escherichia coli MS 200-1; conditions: 20 µg/mL; for Z-score from HTS, Zcho at T1 / Z-score from HTS, Zcho at T2: choline NCE medium; for Z-score from HTS, Zcho at T1 / Z-score from HTS, Zgly at T1: 7 h; for Z-score from HTS, Zcho at T2 / Z-score from HTS, Zgly at T2: 20 h; for Z-score from HTS, Zgly at T1 / Z-score from HTS, Zgly at T2: glycerol NCE medium
Experimental: The primary screen was performed in duplicate using the ChemDiv7 commercial library from the Institute of Chemistry and Cell Biology–Longwood (ICCB-L) Screening Facility, consisting of 49,128 compounds (Fig. 1D). Each compound was tested at a concentration of 20 µg/mL.
NCE media was adapted based on the “no carbon E” media as previously described ([14]), and contains 29 mM potassium phosphate monobasic, 29 mM potassium phosphate dibasic, 17 mM ammonium sodium phosphate dibasic, 40 mM sodium fumarate dibasic, 0.1% (wt/vol) casamino acids, and either 20 mM choline chloride or 3 g/L glycerol. This mixture was supplemented with 1 mM magnesium sulfate, 1% ATCC vitamin supplement, and 1% ATCC trace mineral supplement.
Compounds from the Institute of Chemistry and Cell Biology-Longwood Screening Facility (ICCB-L) commercial ChemDiv7 library were transferred to 384-well plates at 5 mg/mL in DMSO.
E. coli was grown anaerobically in LB media containing 1 mM choline chloride overnight at 37°C and then resuspended (two log-fold dilution) in either NCE media supplemented with 20 mM choline or 3 g/L glycerol for screening. The E. coli cultures were then added to the compound plates and incubated at 37°C anaerobically. The final concentration of compounds in culture was 20 µg/mL. OD600 was measured at 7 h and 20 h in duplicate compound plates. For control, 60 µg/mL kanamycin was used. Z-scores of each compound were calculated by measuring the number of standard deviations of each well’s OD600 with respect to the plate’s mean OD600. Compounds with a Z-score of less than –2 on choline but more than or equal to 0 on glycerol, in at least one replicate plate, were selected for further validation. Z’ was calculated using the control columns, as an internal quality control.

[3] = first value of cell (replicate plate)
[4] = second value of cell (replicate plate)

## Cc1ccc(-c2cc(C(=O)NCCCN3CCc4ccccc4C3)c(C)[nH]2)cc1C [Compound 5]
E. coli MS 200-1 [1]
  EC50: 12 µM
E. coli MS 200-1 [2]; [3]
  Z-score from HTS, Zcho at T1: −4.27
  Z-score from HTS, Zcho at T2: 0.16
  Z-score from HTS, Zgly at T1: −1.42
  Z-score from HTS, Zgly at T2: 0.83
E. coli MS 200-1 [2]; [4]
  Z-score from HTS, Zcho at T1: –4.23
  Z-score from HTS, Zcho at T2: –0.06
  Z-score from HTS, Zgly at T1: 0.61
  Z-score from HTS, Zgly at T2: 1.41
